The text below walks through data of patent US7018988B2, “Pharmaceutically active pyrrolidine derivatives as Bax inhibitors” (Applied Research Systems ARS Holding N.V., priority 2000, dated 2006).

What is called inhibition is the percentage by which the read-out fell short of the control.

The experiment has as its target T1, Bax (Homo sapiens, UniProt Q07812).
T1 construct: endogenous in cells; host or cells: mitochondria isolated from HeLa cells
Put plainly: Effect of compounds on the release of cytochrome c triggered by Bid-induced Bax activation (in vitro assay d). The note with it: compound at 10 μM; mitochondria isolated from HeLa cells; 10 nM recombinant Bid. The experiment is classed as biochemical. As to the method:
d) Effect of Compounds according to formula I onto the Release of Cytochrome c Trig-gered by Bid-Induced Bax Activation (In Vitro Assay)
Concerning the Bid-induced activation of Bax leading to mitochondrial Cytochrome C release, it is referred to the description of Martinou et al. in The Journal of Cell Biology, Vol. 144, No. 5, Mar. 8, 1999, pages 891–901. Mitochondria isolated from HeLa cells are incubated for 15 min at 30° C. in 100 μl of KCl buffer in the presence or absence of 10 nM recombinant Bid. The various compounds (10 μM) are pre-incubated for 5 min prior to addition of Bid. Following incubation, mitochondria were centrifuged for 5 min at 13000 g at 4° C. and the supernatant is collected for cytochrome c analysis. Cytochrome c is detected by Western blotting. The cytochrome c bands are scanned and quantified using a Bio-Rad (GS-700 Imaging Densitometer).
The above set out 2 in vitro assays c) and d) involving the determination of mitochondrial cytochrome c release are based on immunochemical methods using the Western blot analysis. […]

T1 sequence (Q07812 whole entry): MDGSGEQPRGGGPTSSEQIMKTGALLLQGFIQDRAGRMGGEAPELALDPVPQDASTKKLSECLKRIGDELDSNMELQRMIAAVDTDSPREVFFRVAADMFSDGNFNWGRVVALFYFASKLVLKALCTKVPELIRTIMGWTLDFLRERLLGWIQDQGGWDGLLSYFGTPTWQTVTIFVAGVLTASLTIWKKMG

On to `CCCCCNC(=O)N1CC(=NOC)C[C@H]1C(=O)NCCO` [Example 23, (2S,4EZ)-N^2-(2-hydroxyethyl)-4-(methoxyimino)-N^1-pentyl-1,2-pyrrolidinedicarboxamide], for which the inhibition at 10 µM was ~79%.

In the case of `CCCCCNC(=O)N1CC(=NOC)C[C@H]1C(=O)N1CCN(Cc2ccc3c(c2)OCO3)CC1` [Example 28, (2S,4EZ)-2-{[4-(1,3-benzodioxol-5-ylmethyl)-1-piperazinyl]carbonyl}-4-(methoxyimino)-N-pentyl-1-pyrrolidinecarboxamide], the inhibition at 10 µM is ~59%.
